# Measured values from patent publication US20260232767A1, “INTERLEUKIN-23 RECEPTOR ANTAGONIST PEPTIDES FOR USE IN THE TREATMENT OF PSORIASIS” (Janssen Pharmaceutica NV, priority 2023, published 2026).
# System: subjects with moderate-to-severe plaque psoriasis
# Assay: Safety, adverse events, Example 2 through Week 56
# Format: in vivo, human
# Settings: through Week 56; for Subjects with 1 or more Serious adverse events: Tonsillar hypertrophy / Subjects with 1 or more Serious adverse events: Uterine leiomyoma / Subjects with 1 or more Serious adverse events: Ventricular dysfunction / Subjects with 1 or more treatment-emergent adverse events leading to discontinuation of study agent / Subjects with 1 or more Adverse events / Subjects with 1 or more Adverse events: Alanine aminotransferase increased / Subjects with 1 or more Adverse events: Arthralgia / Subjects with 1 or more Adverse events: Aspartate aminotransferase increased / Subjects with 1 or more Adverse events: Bronchitis / Subjects with 1 or more Adverse events: COVID-19 / Subjects with 1 or more Adverse events: Cough / Subjects with 1 or more Adverse events: Diarrhea / Subjects with 1 or more Adverse events: Headache / Subjects with 1 or more Adverse events: Influenza / Subjects with 1 or more Adverse events: Nasopharyngitis / Subjects with 1 or more Adverse events: Upper respiratory tract infection / Subjects with 1 or more Adverse events: Urinary tract infection / Subjects with 1 or more Serious adverse events / Subjects with 1 or more Serious adverse events: COVID-19 / Subjects with 1 or more Serious adverse events: Cerebrovascular accident / Subjects with 1 or more Serious adverse events: Coronary artery disease / Subjects with 1 or more Serious adverse events: Diverticulitis / Subjects with 1 or more Serious adverse events: Foot deformity / Subjects with 1 or more Serious adverse events: Infected cyst / Subjects with 1 or more Serious adverse events: Intervertebral disc protrusion / Subjects with 1 or more Serious adverse events: Ligament injury / Subjects with 1 or more Serious adverse events: Non-cardiac chest pain / Subjects with 1 or more Serious adverse events: Suicide attempt: number of subjects
# Text: The LTE safety analysis was based on randomized participants in Example who entered the present long-term extension study and received at least one dose of study intervention (including a partial dose) during the study period.
# [1] = Placebo → 100 mg QD after crossover
compound,measurement,setting,value
"CC(=O)NCCCC[C@@H]1NC(=O)[C@H](Cc2c[nH]c3c(C)cccc23)NC(=O)[C@H]([C@@H](C)O)NC(=O)[C@H](CC(N)=O)NC(=O)[C@@H](NC(C)=O)C(C)(C)SSC(C)(C)[C@@H](C(=O)N[C@@H](Cc2ccc(OCCN)cc2)C(=O)N[C@@H](Cc2ccc3ccccc3c2)C(=O)NC2(C(=O)N[C@@H](CCC(=O)O)C(=O)N[C@@H](CC(N)=O)C(=O)N[C@@H](Cc3cccnc3)C(=O)N(C)CC(N)=O)CCOCC2)NC1=O [IL-23 receptor antagonist peptide, Ac-[Pen]*-N-T-[W(7-Me)]-[Lys(Ac)]-[Pen]*-Phe[4-(2-aminoethoxy)]-[2-Nal]-[THP]-E-N-[3-Pal]-Sarc-NH2 (*[Pen]-[Pen]* formdisulfidebond)]",Subjects with 1 or more Serious adverse events: Tonsillar hypertrophy,50 mg QD,0
same,Subjects with 1 or more Serious adverse events: Uterine leiomyoma,50 mg QD,0
same,Subjects with 1 or more Serious adverse events: Ventricular dysfunction,50 mg QD,0
same,Subjects with 1 or more treatment-emergent adverse events leading to discontinuation of study agent,50 mg QD,2
same,Subjects with 1 or more Adverse events,100 mg BID,32
same,Subjects with 1 or more Adverse events: Alanine aminotransferase increased,100 mg BID,4
same,Subjects with 1 or more Adverse events: Arthralgia,100 mg BID,2
same,Subjects with 1 or more Adverse events: Aspartate aminotransferase increased,100 mg BID,3
same,Subjects with 1 or more Adverse events: Bronchitis,100 mg BID,0
same,Subjects with 1 or more Adverse events: COVID-19,100 mg BID,7
same,Subjects with 1 or more Adverse events: Cough,100 mg BID,2
same,Subjects with 1 or more Adverse events: Diarrhea,100 mg BID,1
same,Subjects with 1 or more Adverse events: Headache,100 mg BID,1
same,Subjects with 1 or more Adverse events: Influenza,100 mg BID,1
same,Subjects with 1 or more Adverse events: Nasopharyngitis,100 mg BID,5
same,Subjects with 1 or more Adverse events: Upper respiratory tract infection,100 mg BID,5
same,Subjects with 1 or more Adverse events: Urinary tract infection,100 mg BID,2
same,Subjects with 1 or more Serious adverse events,100 mg BID,1
same,Subjects with 1 or more Serious adverse events: COVID-19,100 mg BID,0
same,Subjects with 1 or more Serious adverse events: Cerebrovascular accident,100 mg BID,0
same,Subjects with 1 or more Serious adverse events: Coronary artery disease,100 mg BID,0
same,Subjects with 1 or more Serious adverse events: Diverticulitis,100 mg BID,0
same,Subjects with 1 or more Serious adverse events: Foot deformity,100 mg BID,0
same,Subjects with 1 or more Serious adverse events: Infected cyst,100 mg BID,0
same,Subjects with 1 or more Serious adverse events: Intervertebral disc protrusion,100 mg BID,0
same,Subjects with 1 or more Serious adverse events: Ligament injury,100 mg BID,0
same,Subjects with 1 or more Serious adverse events: Non-cardiac chest pain,100 mg BID,0
same,Subjects with 1 or more Serious adverse events: Suicide attempt,100 mg BID,0
same,Subjects with 1 or more Serious adverse events: Tonsillar hypertrophy,100 mg BID,0
same,Subjects with 1 or more Serious adverse events: Uterine leiomyoma,100 mg BID,1
same,Subjects with 1 or more Serious adverse events: Ventricular dysfunction,100 mg BID,0
same,Subjects with 1 or more treatment-emergent adverse events leading to discontinuation of study agent,100 mg BID,1
same,Subjects with 1 or more Adverse events,100 mg QD,31
same,Subjects with 1 or more Adverse events: Alanine aminotransferase increased,100 mg QD,0
same,Subjects with 1 or more Adverse events: Arthralgia,100 mg QD,3
same,Subjects with 1 or more Adverse events: Aspartate aminotransferase increased,100 mg QD,0
same,Subjects with 1 or more Adverse events: Bronchitis,100 mg QD,0
same,Subjects with 1 or more Adverse events: COVID-19,100 mg QD,5
same,Subjects with 1 or more Adverse events: Cough,100 mg QD,3
same,Subjects with 1 or more Adverse events: Diarrhea,100 mg QD,1
same,Subjects with 1 or more Adverse events: Headache,100 mg QD,5
same,Subjects with 1 or more Adverse events: Influenza,100 mg QD,1
same,Subjects with 1 or more Adverse events: Nasopharyngitis,100 mg QD,11
same,Subjects with 1 or more Adverse events: Upper respiratory tract infection,100 mg QD,2
same,Subjects with 1 or more Adverse events: Urinary tract infection,100 mg QD,0
same,Subjects with 1 or more Serious adverse events,100 mg QD,3
same,Subjects with 1 or more Serious adverse events: COVID-19,100 mg QD,1
same,Subjects with 1 or more Serious adverse events: Cerebrovascular accident,100 mg QD,0
same,Subjects with 1 or more Serious adverse events: Coronary artery disease,100 mg QD,0
same,Subjects with 1 or more Serious adverse events: Diverticulitis,100 mg QD,1
same,Subjects with 1 or more Serious adverse events: Foot deformity,100 mg QD,0
same,Subjects with 1 or more Serious adverse events: Infected cyst,100 mg QD,0
same,Subjects with 1 or more Serious adverse events: Intervertebral disc protrusion,100 mg QD,1
same,Subjects with 1 or more Serious adverse events: Ligament injury,100 mg QD,0
same,Subjects with 1 or more Serious adverse events: Non-cardiac chest pain,100 mg QD,0
same,Subjects with 1 or more Serious adverse events: Suicide attempt,100 mg QD,1
same,Subjects with 1 or more Serious adverse events: Tonsillar hypertrophy,100 mg QD,0
same,Subjects with 1 or more Serious adverse events: Uterine leiomyoma,100 mg QD,0
same,Subjects with 1 or more Serious adverse events: Ventricular dysfunction,100 mg QD,0
same,Subjects with 1 or more treatment-emergent adverse events leading to discontinuation of study agent,100 mg QD,2
same,Subjects with 1 or more Adverse events,Combined,174
same,Subjects with 1 or more Adverse events: Alanine aminotransferase increased,Combined,9
same,Subjects with 1 or more Adverse events: Arthralgia,Combined,8
same,Subjects with 1 or more Adverse events: Aspartate aminotransferase increased,Combined,7
same,Subjects with 1 or more Adverse events: Bronchitis,Combined,9
same,Subjects with 1 or more Adverse events: COVID-19,Combined,35
same,Subjects with 1 or more Adverse events: Cough,Combined,8
same,Subjects with 1 or more Adverse events: Diarrhea,Combined,11
same,Subjects with 1 or more Adverse events: Headache,Combined,12
same,Subjects with 1 or more Adverse events: Influenza,Combined,7
same,Subjects with 1 or more Adverse events: Nasopharyngitis,Combined,49
same,Subjects with 1 or more Adverse events: Upper respiratory tract infection,Combined,24
same,Subjects with 1 or more Adverse events: Urinary tract infection,Combined,8
same,Subjects with 1 or more Serious adverse events,Combined,11
same,Subjects with 1 or more Serious adverse events: COVID-19,Combined,1
same,Subjects with 1 or more Serious adverse events: Cerebrovascular accident,Combined,1
same,Subjects with 1 or more Serious adverse events: Coronary artery disease,Combined,1
same,Subjects with 1 or more Serious adverse events: Diverticulitis,Combined,1
same,Subjects with 1 or more Serious adverse events: Foot deformity,Combined,1
same,Subjects with 1 or more Serious adverse events: Infected cyst,Combined,1
same,Subjects with 1 or more Serious adverse events: Intervertebral disc protrusion,Combined,1
same,Subjects with 1 or more Serious adverse events: Ligament injury,Combined,1
same,Subjects with 1 or more Serious adverse events: Non-cardiac chest pain,Combined,1
same,Subjects with 1 or more Serious adverse events: Suicide attempt,Combined,1
same,Subjects with 1 or more Serious adverse events: Tonsillar hypertrophy,Combined,1
same,Subjects with 1 or more Serious adverse events: Uterine leiomyoma,Combined,1
same,Subjects with 1 or more Serious adverse events: Ventricular dysfunction,Combined,1
same,Subjects with 1 or more treatment-emergent adverse events leading to discontinuation of study agent,Combined,10
same,Subjects with 1 or more Adverse events,[1],23
same,Subjects with 1 or more Adverse events: Alanine aminotransferase increased,[1],2
same,Subjects with 1 or more Adverse events: Arthralgia,[1],1
same,Subjects with 1 or more Adverse events: Aspartate aminotransferase increased,[1],1
same,Subjects with 1 or more Adverse events: Bronchitis,[1],1
same,Subjects with 1 or more Adverse events: COVID-19,[1],2
same,Subjects with 1 or more Adverse events: Cough,[1],0
same,Subjects with 1 or more Adverse events: Diarrhea,[1],1
same,Subjects with 1 or more Adverse events: Headache,[1],0
same,Subjects with 1 or more Adverse events: Influenza,[1],1
same,Subjects with 1 or more Adverse events: Nasopharyngitis,[1],9
same,Subjects with 1 or more Adverse events: Upper respiratory tract infection,[1],4
same,Subjects with 1 or more Adverse events: Urinary tract infection,[1],2
same,Subjects with 1 or more Serious adverse events,[1],1
same,Subjects with 1 or more Serious adverse events: COVID-19,[1],0
same,Subjects with 1 or more Serious adverse events: Cerebrovascular accident,[1],1
same,Subjects with 1 or more Serious adverse events: Coronary artery disease,[1],0
same,Subjects with 1 or more Serious adverse events: Diverticulitis,[1],0
same,Subjects with 1 or more Serious adverse events: Foot deformity,[1],0
same,Subjects with 1 or more Serious adverse events: Infected cyst,[1],0
same,Subjects with 1 or more Serious adverse events: Intervertebral disc protrusion,[1],0
same,Subjects with 1 or more Serious adverse events: Ligament injury,[1],0
same,Subjects with 1 or more Serious adverse events: Non-cardiac chest pain,[1],0
same,Subjects with 1 or more Serious adverse events: Suicide attempt,[1],0
same,Subjects with 1 or more Serious adverse events: Tonsillar hypertrophy,[1],0
same,Subjects with 1 or more Serious adverse events: Uterine leiomyoma,[1],0
same,Subjects with 1 or more Serious adverse events: Ventricular dysfunction,[1],0
same,Subjects with 1 or more treatment-emergent adverse events leading to discontinuation of study agent,[1],0
same,Subjects with Abdominal distension,,0
same,Subjects with Abscess limb,,0
same,Subjects with Constipation,,0
same,Subjects with Gastrointestinal disorders (system organ class),,(16.7%)
same,Subjects with Headache,,(11.6%)
